The text below walks through data of US8716333B2, “Process and compounds for the manufacture of oseltamivir and analogs thereof, and new antiviral agents” (Brock University, priority 2009, dated 2014).

In general, melting point refers to the temperature of the solid-liquid transition. As usually defined, the IC50 is the concentration that gives 50% inhibition. A high value points to lower potency.

One data set deals with T1, Neu1 sialidase (Mus musculus, UniProt O35657).
T1 construct: endogenous in cells; host or cells: RAW-blue macrophage cells
Put plainly: LPS-induced Neu1 sialidase activity in live RAW-blue macrophage cells (4MU-NeuAc fluorescence). It counts as cell-based. The settings on record: for IC50: LPS-induced sialidase activity on the cell surface of live RAW-blue macrophage cells, substrate 4MU-NeuAc, fluorescence at 1-2 min. The method, then: Inhibitory Potency of Compounds of the Application on Lipopolysaccharide (LPS)-Induced Neu1 Sialidase Activity in Live Raw-Blue Macrophage Cells
Compounds of the application were assessed for antiviral activity using an assay that detects sialidase activity on the surface of viable cells. […] Fluorescent images were taken at 1-2 minutes after adding the substrate using epi-fluorescent microscopy (40× objective). The mean fluorescence surrounding the cells for each of the images was measured using Image J software.

In turn, `CCOC(=O)C1=C[C@@H]2OC(C)=N[C@@H]2[C@@H](NC(=O)OC(C)(C)C)C1` [Compound 14, (3aR,4S,7aS)-ethyl 4-(tert-butoxycarbonylamino)-2-methyl-3a,4,5,7a-tetrahydrobenzo[d]oxazole-6-carboxylate] yielded a melting point of 45 to 49 °C.

For the compound `CC(=O)N[C@@H]1C=C[C@@](O)(C(=O)O)[C@H]2OC(C)(C)O[C@@H]12` [Compound 16, Sodium (3aS,4S,7R,7aS)-7-acetamido-4-hydroxy-2,2-dimethyl-3a,4,7,7a-tetrahydrobenzo[d][1,3]dioxole-4-carboxylate], the IC50 against Neu1 sialidase worked out at 140 nM.

The compound `CCOC(=O)C1=C[C@@H](OC(CC)CC)[C@H](NC(C)=O)[C@@H](NC(=O)OC(C)(C)C)C1` [Compound 15, (3R,4R,5S)-ethyl 4-acetamido-5-(tert-butoxycarbonylamino)-3-(pentan-3-yloxy)cyclohex-1-enecarboxylate] returned a melting point of 144 to 145 °C.

In the case of `CCOC(=O)C1=C[C@@H](OC(CC)CC)[C@H](NC(C)=O)[C@@H](N)C1` [oseltamivir phosphate 1a (Tamiflu ®), oseltamivir phosphate, reference compound], the “inhibition of LPS-induced sialidase activity” value at Neu1 sialidase (RAW-blue macrophage cells, dose dependent manner) is listed as “completely inhibited”.

Regarding `CC(=O)N[C@@H]1/C(=N/O)C=C(C(=O)O)[C@H]2OC(C)(C)O[C@H]21` [Compound 17, Sodium (3aR,7R,7aS,E)-7-acetamido-6-(hydroxyimino)-2,2-dimethyl-3a,6,7,7a-tetrahydrobenzo[d][1,3]dioxole-4-carboxylate], the IC50 on Neu1 sialidase is 12.7 nM.

In turn, `CC(=O)N[C@H]1[C@@H]2OC(C)(C)O[C@@H]2C(C(=O)O)=C[C@H]1O` [Compound 19, Sodium (3aR,6R,7R,7aS)-7-acetamido-6-hydroxy-2,2-dimethyl-3a,6,7,7a-tetrahydrobenzo[d][1,3]dioxole-4-carboxylate] returned a half-inhibitory concentration (IC50) on Neu1 sialidase of 7410 nM. Compared with the last compound, the IC50 is about 580-fold higher.
